Source: US10722512B2, “Combinations of histone deacetylase inhibitors and either HER2 inhibitors or PI3K inhibitors” (Acetylon Pharmaceuticals, Inc., priority 2013, dated 2020)

Legend:
Format in all cases: cell-based
MCF-7 = assay: Breast cancer cell viability, 48 hours, MTA assay; details: 48 hours; for IC50: Homo sapiens, MCF7, MCF-7, single agent, read-out: IC50
Source text: (§1) Cell viabilities were used to calculate “Fraction Affected” (Fa) and “Combination Index” (CI) values using the Chou-Talalay method. Any combination with a CI value<0.70 at a Fa value between 0.25 and 0.75 was defined as positive synergy.

MX-1 = assay: Breast cancer cell viability, 48 hours, MTA assay; details: 48 hours; for IC50: Homo sapiens, MX1, MX-1, single agent, read-out: IC50; for Synergy: MX-1, combination with cmpd A, Chou-Talalay CI
Source text: as §1

Bcap-37 = assay: Breast cancer cell viability, 48 hours, MTA assay; details: 48 hours; for Synergy: Bcap-37, combination with cmpd A, Chou-Talalay CI; for IC50: Homo sapiens, Bcap37, Bcap-37, single agent, read-out: IC50
Source text: as §1

MDA-MB-468 = assay: Breast cancer cell viability, 48 hours, MTA assay; details: 48 hours; for IC50: Homo sapiens, MDA-MB-468, single agent, read-out: IC50; for Synergy: MDA-MB-468, combination with cmpd A, Chou-Talalay CI
Source text: as §1

Hs578T = assay: Breast cancer cell viability, 48 hours, MTA assay; details: Hs578T, 48 hours; for IC50: Homo sapiens, Hs-578T, single agent, read-out: IC50; for Synergy: combination with cmpd A, Chou-Talalay CI
Source text: as §1

HCC38 = assay: Breast cancer cell viability, 48 hours, MTA assay; details: 48 hours; for Synergy: HCC38, combination with cmpd A, Chou-Talalay CI; for IC50: Homo sapiens, HCC38, single agent, read-out: IC50
Source text: as §1

BT-549 = assay: Breast cancer cell viability, 48 hours, MTA assay; details: 48 hours; for Synergy: BT-549, combination with cmpd A, Chou-Talalay CI; for IC50: Homo sapiens, BT-549, single agent, read-out: IC50
Source text: as §1

MDA-MB-436 = assay: Breast cancer cell viability, 48 hours, MTA assay; details: 48 hours; for IC50: Homo sapiens, MDA-MB-436, single agent, read-out: IC50
Source text: as §1

HCC1937 = assay: Breast cancer cell viability, 48 hours, MTA assay; details: 48 hours; for Synergy: HCC1937, combination with cmpd A, Chou-Talalay CI; for IC50: Homo sapiens, HCC1937, single agent, read-out: IC50
Source text: as §1

ZR-75-1 = assay: Breast cancer cell viability, 48 hours, MTA assay; details: 48 hours; for IC50: Homo sapiens, ZR-75-1, single agent, read-out: IC50; for Synergy: ZR-75-1, combination with cmpd A, Chou-Talalay CI
Source text: as §1

MDA-MB-453 = assay: Breast cancer cell viability, 48 hours, MTA assay; details: 48 hours; for IC50: Homo sapiens, MDA-MB-453, single agent, read-out: IC50
Source text: as §1

T-47D* = assay: Breast cancer cell viability, 48 hours, MTA assay; details: T-47D*, 48 hours; for IC50: Homo sapiens, T47D, single agent, read-out: IC50; for Synergy: combination with cmpd A, Chou-Talalay CI
Source text: as §1

BT474 = assay: Breast cancer cell viability, 48 hours, MTA assay; details: 48 hours; for Synergy: BT474, combination with cmpd A, Chou-Talalay CI; for IC50: Homo sapiens, BT-474, BT474, single agent, read-out: IC50
Source text: as §1

MDA-MB-231 = assay: Breast cancer cell viability, 48 hours, MTA assay; details: 48 hours; for IC50: Homo sapiens, MDA-MB-231, single agent, read-out: IC50; for Synergy: MDA-MB-231, combination with cmpd A, Chou-Talalay CI
Source text: as §1

MDA-MB-361 = assay: Breast cancer cell viability, 48 hours, MTA assay; details: 48 hours; for IC50: Homo sapiens, MDA-MB-361, single agent, read-out: IC50
Source text: as §1

SK-BR-3 = assay: Breast cancer cell viability, 48 hours, MTA assay; details: 48 hours; for IC50: Homo sapiens, SK-BR-3, single agent, read-out: IC50; for Synergy: SK-BR-3, combination with cmpd A, Chou-Talalay CI
Source text: as §1

[1] = test system: Her2+ breast cancer cells

SMILES	IC50 (MCF-7) [nM]	IC50 (MX-1) [nM]	Synergy (MX-1)	Synergy (Bcap-37)	IC50 (Bcap-37) [nM]	IC50 (MDA-MB-468) [nM]	Synergy (MDA-MB-468)	IC50 (Hs578T) [nM]	Synergy (Hs578T)	Synergy (HCC38)	IC50 (HCC38) [nM]	Synergy (BT-549)	IC50 (BT-549) [nM]	IC50 (MDA-MB-436) [nM]	Synergy (HCC1937)	IC50 (HCC1937) [nM]	IC50 (ZR-75-1) [nM]	Synergy (ZR-75-1)	IC50 (MDA-MB-453) [nM]	IC50 (T-47D*) [nM]	also measured
COc1cccc2c1C(=O)c1c(O)c3c(c(O)c1C2=O)C[C@@](O)(C(=O)CO)C[C@@H]3O[C@H]1C[C@H](N)[C@H](O)[C@H](C)O1 [Doxorubicin]	820	240	S (Any combination with a CI value<0.70 at a Fa value between 0.25 and 0.75 was defined as positive synergy)	S (Any combination with a CI value<0.70 at a Fa value between 0.25 and 0.75 was defined as positive synergy)	170	100	S (Any combination with a CI value<0.70 at a Fa value between 0.25 and 0.75 was defined as positive synergy)	1560	S (Any combination with a CI value<0.70 at a Fa value between 0.25 and 0.75 was defined as positive synergy)	S (Any combination with a CI value<0.70 at a Fa value between 0.25 and 0.75 was defined as positive synergy)	180	S (Any combination with a CI value<0.70 at a Fa value between 0.25 and 0.75 was defined as positive synergy)	30	170	S (Any combination with a CI value<0.70 at a Fa value between 0.25 and 0.75 was defined as positive synergy)	240	130	S (Any combination with a CI value<0.70 at a Fa value between 0.25 and 0.75 was defined as positive synergy)	220	150	Synergy (T-47D*): S (Any combination with a CI value<0.70 at a Fa value between 0.25 and 0.75 was defined as positive synergy); Synergy (BT474): S (Any combination with a CI value<0.70 at a Fa value between 0.25 and 0.75 was defined as positive synergy); IC50 (BT474): 190 nM; IC50 (MDA-MB-231): 730 nM; Synergy (MDA-MB-231): S (Any combination with a CI value<0.70 at a Fa value between 0.25 and 0.75 was defined as positive synergy); IC50 (MDA-MB-361): 170 nM; IC50 (SK-BR-3): 120 nM; Synergy (SK-BR-3): S (Any combination with a CI value<0.70 at a Fa value between 0.25 and 0.75 was defined as positive synergy)
CS(=O)(=O)N1CCN(Cc2cc3nc(-c4cccc5[nH]ncc45)nc(N4CCOCC4)c3s2)CC1 [GDC-0941]	430	560	S (Any combination with a CI value<0.70 at a Fa value between 0.25 and 0.75 was defined as positive synergy)	S (Any combination with a CI value<0.70 at a Fa value between 0.25 and 0.75 was defined as positive synergy)	2480	2930	S (Any combination with a CI value<0.70 at a Fa value between 0.25 and 0.75 was defined as positive synergy)	1110	S (Any combination with a CI value<0.70 at a Fa value between 0.25 and 0.75 was defined as positive synergy)	S (Any combination with a CI value<0.70 at a Fa value between 0.25 and 0.75 was defined as positive synergy)	7440	S (Any combination with a CI value<0.70 at a Fa value between 0.25 and 0.75 was defined as positive synergy)	1660	3270	S (Any combination with a CI value<0.70 at a Fa value between 0.25 and 0.75 was defined as positive synergy)	2450	210	S (Any combination with a CI value<0.70 at a Fa value between 0.25 and 0.75 was defined as positive synergy)	290	620	Synergy (MCF-7; MCF-7, combination with cmpd A, Chou-Talalay CI): S (Any combination with a CI value<0.70 at a Fa value between 0.25 and 0.75 was defined as positive synergy); Synergy (MDA-MB-436; MDA-MB-436, combination with cmpd A, Chou-Talalay CI): S (Any combination with a CI value<0.70 at a Fa value between 0.25 and 0.75 was defined as positive synergy); Synergy (MDA-MB-453; MDA-MB-453, combination with cmpd A, Chou-Talalay CI): S (Any combination with a CI value<0.70 at a Fa value between 0.25 and 0.75 was defined as positive synergy); Synergy (T-47D*): S (Any combination with a CI value<0.70 at a Fa value between 0.25 and 0.75 was defined as positive synergy); Synergy (BT474): S (Any combination with a CI value<0.70 at a Fa value between 0.25 and 0.75 was defined as positive synergy); IC50 (BT474): 90 nM; IC50 (MDA-MB-231): 1690 nM; Synergy (MDA-MB-231): S (Any combination with a CI value<0.70 at a Fa value between 0.25 and 0.75 was defined as positive synergy); IC50 (MDA-MB-361): 3270 nM; Synergy (MDA-MB-361; MDA-MB-361, combination with cmpd A, Chou-Talalay CI): S (Any combination with a CI value<0.70 at a Fa value between 0.25 and 0.75 was defined as positive synergy); IC50 (SK-BR-3): 220 nM; Synergy (SK-BR-3): S (Any combination with a CI value<0.70 at a Fa value between 0.25 and 0.75 was defined as positive synergy); cytotoxicity of the combination with Compound A [1]: synergistic cytotoxicity
